Data taken from US20260049077A1, “Neurotrophic Receptor Tyrosine Kinase (NTRK) Inhibitors and Methods Using Same” (Baylor College of Medicine, priority 2022, published 2026).
Like-named read-outs stand apart in the source and are kept apart here.

Legend:
[1] = Metabolic stability in mouse liver microsomes (MLM)
[2] = Metabolic stability in human liver microsomes (HLM)
[3] = target: NTRK2 (Homo sapiens (Human), UniProt Q16620); assay: NTRK2 inhibition (IC50); format: biochemical
[4] = target: NTRK1 (Homo sapiens (Human), UniProt P04629); assay: NTRK1 inhibition (IC50)
Sequence of NTRK1 (P04629 33-796): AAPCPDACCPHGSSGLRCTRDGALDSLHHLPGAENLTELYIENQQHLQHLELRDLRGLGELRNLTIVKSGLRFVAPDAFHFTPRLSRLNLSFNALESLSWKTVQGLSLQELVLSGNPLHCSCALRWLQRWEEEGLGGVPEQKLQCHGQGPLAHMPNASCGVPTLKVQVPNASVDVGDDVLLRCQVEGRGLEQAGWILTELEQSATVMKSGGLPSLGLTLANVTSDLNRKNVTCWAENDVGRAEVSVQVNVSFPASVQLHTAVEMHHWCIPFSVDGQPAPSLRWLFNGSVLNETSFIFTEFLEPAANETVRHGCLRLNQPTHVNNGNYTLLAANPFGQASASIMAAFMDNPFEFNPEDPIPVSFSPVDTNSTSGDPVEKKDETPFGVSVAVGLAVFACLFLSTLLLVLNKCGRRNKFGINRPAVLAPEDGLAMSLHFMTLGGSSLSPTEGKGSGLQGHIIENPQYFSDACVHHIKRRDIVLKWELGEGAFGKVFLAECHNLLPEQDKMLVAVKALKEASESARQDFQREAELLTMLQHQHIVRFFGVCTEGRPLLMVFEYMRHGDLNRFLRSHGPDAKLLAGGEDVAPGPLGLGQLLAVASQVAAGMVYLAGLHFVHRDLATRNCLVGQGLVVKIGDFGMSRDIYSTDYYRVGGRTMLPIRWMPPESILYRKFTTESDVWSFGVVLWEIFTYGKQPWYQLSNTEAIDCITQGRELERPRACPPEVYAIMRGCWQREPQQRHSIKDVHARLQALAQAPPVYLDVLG

[5] = target: NTRK3 (Homo sapiens (Human), UniProt Q16288); assay: NTRK3 inhibition (IC50); details: read-out: NTRK3 IC50
Sequence of NTRK3 (Q16288 32-839): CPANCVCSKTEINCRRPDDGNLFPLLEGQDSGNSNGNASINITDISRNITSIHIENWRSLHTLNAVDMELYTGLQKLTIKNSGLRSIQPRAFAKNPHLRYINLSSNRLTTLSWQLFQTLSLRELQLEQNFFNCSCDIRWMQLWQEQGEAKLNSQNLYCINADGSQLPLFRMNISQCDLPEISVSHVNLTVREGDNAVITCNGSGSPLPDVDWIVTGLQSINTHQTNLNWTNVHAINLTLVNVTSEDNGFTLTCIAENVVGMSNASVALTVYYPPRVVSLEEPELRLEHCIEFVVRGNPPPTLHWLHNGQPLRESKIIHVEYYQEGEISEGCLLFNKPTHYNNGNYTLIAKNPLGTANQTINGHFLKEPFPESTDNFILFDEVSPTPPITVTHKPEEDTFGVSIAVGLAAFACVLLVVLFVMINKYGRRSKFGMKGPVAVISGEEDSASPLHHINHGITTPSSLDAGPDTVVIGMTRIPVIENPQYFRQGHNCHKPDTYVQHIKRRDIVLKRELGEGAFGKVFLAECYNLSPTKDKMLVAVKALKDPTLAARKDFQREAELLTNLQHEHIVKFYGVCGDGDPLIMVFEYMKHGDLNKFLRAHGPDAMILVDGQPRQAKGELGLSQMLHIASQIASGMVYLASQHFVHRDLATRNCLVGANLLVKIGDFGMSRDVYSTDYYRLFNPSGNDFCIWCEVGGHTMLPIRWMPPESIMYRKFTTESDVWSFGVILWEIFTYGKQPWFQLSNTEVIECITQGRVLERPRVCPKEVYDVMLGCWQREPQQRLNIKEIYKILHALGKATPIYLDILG

Sequence of NTRK2 (Q16620 32-822): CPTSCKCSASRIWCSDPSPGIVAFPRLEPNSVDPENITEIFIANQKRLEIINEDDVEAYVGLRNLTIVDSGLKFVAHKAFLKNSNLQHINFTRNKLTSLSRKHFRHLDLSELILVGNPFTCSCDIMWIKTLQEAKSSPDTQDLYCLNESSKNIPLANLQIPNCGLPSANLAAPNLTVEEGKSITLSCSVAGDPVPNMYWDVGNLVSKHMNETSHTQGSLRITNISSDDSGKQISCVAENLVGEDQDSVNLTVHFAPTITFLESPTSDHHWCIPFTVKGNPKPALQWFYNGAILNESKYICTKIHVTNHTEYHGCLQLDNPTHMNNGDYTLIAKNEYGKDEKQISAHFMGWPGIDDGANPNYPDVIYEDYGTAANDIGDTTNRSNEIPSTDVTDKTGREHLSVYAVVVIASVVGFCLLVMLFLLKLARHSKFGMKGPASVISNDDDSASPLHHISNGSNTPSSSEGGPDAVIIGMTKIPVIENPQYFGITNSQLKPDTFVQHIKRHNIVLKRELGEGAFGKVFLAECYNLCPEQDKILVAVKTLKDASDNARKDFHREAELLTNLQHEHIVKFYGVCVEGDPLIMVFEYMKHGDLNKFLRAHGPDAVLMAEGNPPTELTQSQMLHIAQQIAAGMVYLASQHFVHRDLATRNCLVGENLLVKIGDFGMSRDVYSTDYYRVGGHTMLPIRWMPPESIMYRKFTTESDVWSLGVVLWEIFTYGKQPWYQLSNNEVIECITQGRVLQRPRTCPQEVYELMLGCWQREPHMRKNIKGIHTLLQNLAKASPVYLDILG

Row | Compound | IC50 [3] [nM] | IC50 ([4]; read-out: NTRK1 IC50) [nM] | IC50 [5] [nM] | also measured
1 | Cc1nnc2n1-c1ccc(Cl)cc1C(c1ccccc1)=NC2 [Alprazolam] |  |  |  | half-life [1]: 350 min; half-life [2]: 731 min
2 | C[C@H]1CNC(=O)c2cnn3ccc(nc23)N[C@H](C)c2cc(F)ccc2O1 [Reprotrectinib, (3R,11S)-6-fluoro-3,11-dimethyl-10-oxa-2,13,17,18,21-pentazatetracyclo[13.5.2.04,9.018,22]docosa-1(21),4(9),5,7,15(22).16,19-heptaen-14-one, reference compound] |  |  |  | MLM t1/2 [1]: 167 min; HLM t1/2 [2]: 254 min
3 | O=C(Nc1ccc(OC(F)(F)F)cc1)N(Cc1ccn2nccc2c1)C1CC1 [CDD-2275, 1-cyclopropyl-1-(pyrazolo[1,5-a]pyridin-5-ylmethyl)-3-(4-(trifluoromethoxy)phenyl)urea] | 46 |  |  | half-life [1]: 56 min; half-life [2]: 90 min
4 | CN(Cc1ccn2ncc(C(N)=O)c2c1)C(=O)COc1ccc(C(C)(C)C)cc1 [CDD-3183, 5-((2-(4-(tert-butyl)phenoxy)-N-methylacetamido)methyl)pyrazolo[1,5-a]pyridine-3-carboxamide] | 247 | 3610 |  | 
5 | CCC(C)N(Cc1ccn2ncc(C(=O)O)c2c1)C(=O)Nc1ccc(OC(F)(F)F)cc1 (centres unmarked) [CDD-2743, 5-((1-(sec-butyl)-3-(4-(trifluoromethoxy)phenyl)ureido)methyl)pyrazolo[1,5-a]pyridine-3-carboxylic acid] | 6 | 9.5 | 5.4 | 
6 | CC(C)c1ccc(OCC(=O)N(C)Cc2ccn3ncc(C(N)=O)c3c2)cc1 [CDD-3120, 5-((2-(4-isopropylphenoxy)-N-methylacetamido)methyl)pyrazolo[1,5-a]pyridine-3-carboxamide] | 242 | 1780 |  | 
7 | CN(Cc1ccn2ncc(C(N)=O)c2c1)C(=O)COc1ccc(C(F)(F)F)cc1 [CDD-3181, 5-((N-methyl-2-(4-(trifluoromethyl)phenoxy)acetamido)methyl)pyrazolo[1,5-a]pyridine-3-carboxamide] | 1060 | 6720 |  | 
8 | CC(C)CN(Cc1ccn2ncc(C(=O)O)c2c1)C(=O)Nc1ccc(OC(F)(F)F)cc1 [CDD-2742, 5-((1-isobutyl-3-(4-(trifluoromethoxy)phenyl)ureido)methyl)pyrazolo[1,5-a]pyridine-3-carboxylic acid] | 5.7 | 104 | 11.8 | 
9 | CN(C)C(=O)[C@H](Cc1cccc([N+](=O)[O-])c1)NC(=O)Nc1c(Cl)cccc1C(F)(F)F [CDD-3099, (S)-2-(3-(2-chloro-6-(trifluoromethyl)phenyl)ureido)-N,N-dimethyl-3-(3-nitrophenyl)propanamide] | 47400 |  |  | IC50 [4]: 39600 nM
10 | CC(C)N(Cc1ccn2ncc(F)c2c1)C(=O)Nc1ccc(OC(F)(F)F)cc1 [CDD-2734, 1-((3-fluoropyrazolo[1,5-a]pyridin-5-yl)methyl)-1-isopropyl-3-(4-(trifluoromethoxy)phenyl)urea] | 5.3 | 36 |  | half-life [1]: 21 min; half-life [2]: 58 min
11 | NC(=O)c1cnn2ccc(CNC(=O)Nc3ccc(OC(F)(F)F)cc3)cc12 [CDD-3130, 5-((3-(4-(trifluoromethoxy)phenyl)ureido)methyl)pyrazolo[1,5-a]pyridine-3-carboxamide] | 1260 | 9200 |  | 
12 | O=C(Nc1ccccc1OC(F)(F)F)N(Cc1ccn2nccc2c1)C1CCC1 [CDD-2300, 1-cyclobutyl-1-(pyrazolo[1,5-a]pyridin-5-ylmethyl)-3-(2-(trifluoromethoxy)phenyl)urea] | > 10000 |  |  | 
13 | CC(C)c1ccc(OCC(=O)NCc2ccn3ncc(C(N)=O)c3c2)cc1 [CDD-3129, 5-((2-(4-isopropylphenoxy)acetamido)methyl)pyrazolo[1,5-a]pyridine-3-carboxamide] | 3760 | 9540 |  | 
14 | O=C(Nc1ccc(OC(F)(F)F)cc1)N(Cc1ccn2nccc2c1)C1CCCC1 [CDD-2276, 1-cyclopentyl-1-(pyrazolo[1,5-a]pyridin-5-ylmethyl)-3-(4-(trifluoromethoxy)phenyl)urea] | 19 |  |  | half-life [1]: 35 min; half-life [2]: 14 min
15 | CC(C)N(Cc1ccn2nccc2c1)C(=O)CNc1ccc(C2(C(F)(F)F)CC2)cc1 [CDD-3307, N-isopropyl-N-(pyrazolo[1,5-a]pyridin-5-ylmethyl)-2-((4-(1-(trifluoromethyl)cyclopropyl)phenyl)amino)acetamide] | 414 | 2170 | 922 | 
16 | CC(C)N(Cc1ccn2nccc2c1)C(=O)CNc1ccc(C(C)(C)C)nc1 [CDD-3306, 2-((6-(tert-butyl)pyridin-3-yl)amino)-N-isopropyl-N-(pyrazolo[1,5-a]pyridin-5-ylmethyl)acetamide] | 1130 | 2410 | 4770 | 
17 | CN(Cc1ccn2ncc(C(N)=O)c2c1)C(=O)CN(C)c1ccc(C(C)(C)C)cc1 [CDD-3185, 5-((2-((4-(tert-butyl)phenyl)(methyl)amino)-N-methylacetamido)methyl)pyrazolo[1,5-a]pyridine-3-carboxamide] | 1750 | 10900 |  | 

Row | Compound | IC50 [3] [nM] | IC50 ([4]; read-out: NTRK1 IC50) [nM] | IC50 [5] [nM] | also measured
18 | CN(Cc1ccn2ncc(C(N)=O)c2c1)C(=O)CCc1ccc(OC(F)(F)F)cc1 [CDD-3121, 5-((N-methyl-3-(4-(trifluoromethoxy)phenyl)propanamido)methyl)pyrazolo[1,5-a]pyridine-3-carboxamide] | 3240 | 11600 |  | 
19 | C[C@@H]1CCc2ncc(F)cc2[C@H]2CCCN2c2ccn3ncc(c3n2)C(=O)N1 [Selitrectinib, (6R,15R)-9-fluoro-15-methyl-2,11,16,20,21,24-hexazapentacyclo[16.5.2.02,6.07,12.021,25]pentacosa-1(24),7(12),8,10,18(25),19,22-heptaen-17-one, reference compound] |  |  |  | half-life [1]: 32 min; half-life [2]: 244 min
20 | O=C(Nc1cccc(C(F)(F)F)c1)N(Cc1ccn2nccc2c1)C1CCC1 [CDD-2273, 1-cyclobutyl-1-(pyrazolo[1,5-a]pyridin-5-ylmethyl)-3-(3-(trifluoromethyl)phenyl)urea] | 1320 |  |  | half-life [1]: 8.2 min; half-life [2]: 15.5 min
21 | CN(Cc1ccn2ncc(C(N)=O)c2c1)S(=O)(=O)Nc1ccc(OC(F)(F)F)cc1 [CDD-3308, 5-((methyl(N-(4-(trifluoromethoxy)phenyl)sulfamoyl)amino)methyl)pyrazolo[1,5-a]pyridine-3-carboxamide] | 4440 | 28400 | 4320 | 
22 | CC(C)N(Cc1ccc2[nH]ccc2c1)C(=O)COc1ccc(OC(F)(F)F)cc1 [CDD-3264, N-((1H-indol-5-yl)methyl)-N-isopropyl-2-(4-(trifluoromethoxy)phenoxy)acetamide] | 2090 | 43900 | 21800 | 
23 | O=C(Nc1ccc(OC(F)(F)F)cc1)N(Cc1ccn2nccc2c1)C1CCCCC1 [CDD-2298, 1-cyclohexyl-1-(pyrazolo[1,5-a]pyridin-5-ylmethyl)-3-(4-(trifluoromethoxy)phenyl)urea] | 99 |  |  | 
24 | CN(Cc1ccn2ncc(C(N)=O)c2c1)C(=O)COc1cccc(OC(F)(F)F)c1 [CDD-3182, 5-((N-methyl-2-(3-(trifluoromethoxy)phenoxy)acetamido)methyl)pyrazolo[1,5-a]pyridine-3-carboxamide] | 354 | 4060 |  | 
25 | CC[C@H](C)N(Cc1ccn2ncc(C(N)=O)c2c1)C(=O)Nc1ccc(OC(F)(F)F)cc1 [CDD-3058, (S)-5-((1-(sec-butyl)-3-(4-(trifluoromethoxy)phenyl)ureido)methyl)pyrazolo[1,5-a]pyridine-3-carboxamide] | 3.7 | 11.7 | 8.4 | 
26 | O=C(Nc1ccc([N+](=O)[O-])cc1)N(Cc1ccn2nccc2c1)C1CCC1 [CDD-2297, 1-cyclobutyl-3-(4-nitrophenyl)-1-(pyrazolo[1,5-a]pyridin-5-ylmethyl)urea] | > 10000 |  |  | 
27 | O=C(O)c1cnn2ccc(CN(C(=O)Nc3ccc(OC(F)(F)F)cc3)C3CC3)cc12 [CDD-2736, 5-((1-cyclopropyl-3-(4-(trifluoromethoxy)phenyl)ureido)methyl)pyrazolo[1,5-a]pyridine-3-carboxylic acid] | 2.5 | 4.1 | 3.3 | 
28 | O=C(Nc1ccc(OC(F)(F)F)cc1)N(Cc1ccn2nccc2c1)C1CCCCCC1 [CDD-2301, 1-cycloheptyl-1-(pyrazolo[1,5-a]pyridin-5-ylmethyl)-3-(4-(trifluoromethoxy)phenyl)urea] | 513 |  |  | 
29 | CC(C)N(Cc1ccc2[nH]ccc2c1)C(=O)Nc1ccc(OC(F)(F)F)cc1 [CDD-3265, 1-((1H-indol-5-yl)methyl)-1-isopropyl-3-(4-(trifluoromethoxy)phenyl)urea] | 53700 | 50100 | 55100 | 
30 | O=C(Nc1ccc(OC(F)(F)F)cc1)N(Cc1ccn2nccc2c1)c1ccccc1 [CDD-2296, 1-phenyl-1-(pyrazolo[1,5-a]pyridin-5-ylmethyl)-3-(4-(trifluoromethoxy)phenyl)urea] | 335 |  |  | 
31 | CNC(=O)[C@@H](Cc1ccc([N+](=O)[O-])cc1)NC(=O)Nc1ccc(Oc2ccccc2)cc1 [CDD-3100, (R)-N-methyl-3-(4-nitrophenyl)-2-(3-(4-phenoxyphenyl)ureido)propanamide] | 37200 | 26300 |  | 
32 | CC[C@@H](C)N(Cc1ccn2ncc(C(N)=O)c2c1)C(=O)Nc1ccc(OC(F)(F)F)cc1 [CDD-3057, (R)-5-((1-(sec-butyl)-3-(4-(trifluoromethoxy)phenyl)ureido)methyl)pyrazolo[1,5-a]pyridine-3-carboxamide] | 4 | 17.6 | 6.6 | 
33 | CC(C)N(Cc1ccn2ncc(Br)c2c1)C(=O)Nc1ccc(OC(F)(F)F)cc1 [CDD-2735, 1-((3-bromopyrazolo[1,5-a]pyridin-5-yl)methyl)-1-isopropyl-3-(4-(trifluoromethoxy)phenyl)urea] | 3.6 | 4.3 | 4.4 | 
